# In PubChem BioAssay AID1919008 (Molecular Pharmacology Branch, DTP, NCI, 2023):
# Several values for one entry are separate records, joined by “and”; a condition that tells them apart may be missing. Equal values may be shown once.
# System: DMS-114 complex spheroids with HUVEC/MSC, growth % test/control
# Test: Anticancer human tumor DMS-114 cell line growth inhibition [AhR];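 also: spheroids exposed to agents for 7 days before readout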;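 as to viability, T/C: 100% = DMSO vehicle control wells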
# Conditions: for viability, T/C: stronger effect = lower value
# Description: Multicellular complex tumor spheroid response to aryl hydrocarbon receptor antagonists in combination with a variety of drugs and investigational agents in selected tumor cell lines
# The current study was undertaken to assess response to aryl hydrocarbon receptor antagonists in combination with standard-of-care drugs and investigational agents in solid tumor complex spheroid models. Complex spheroids include a stromal component modeled by human endothelial cells (HUVEC) and fibroblasts modeled by human mesenchymal stem cells (MSCs). The concentration ranges selected for each drug and investigational agent were based upon clinically achievable concentrations if the clinical Cmax of the agent was known.
# Compounds. The drugs and investigational agents: BAY 2416964 (NSC825713), GNF351 (NSC835774), CH-223191 (NSC835775), CPI-455 (NSC825282), aza-TdCyd (NSC777586), decitabine (NSC127716), belinostat (NSC758774), entinostat (NSC756642), pevonedistat (NSC761192), tazemetostat (NSC777109), talazoparib (NSC765396), olaparib (NSC753686), selinexor (NSC780203), nedisertib (M3814, NSC802822), bortezomib (NSC756655), venetoclax (NSC766270), doxorubicin (NSC123127), elimusertib (BAY189344, NSC800525), ceralasertib (AZD6738, NSC777638), TAK-243 (NSC785004), alisertib (NSC759677), etoposide (NSC141540), topotecan (NSC609699), eribulin (NSC707389), gemcitabine (NSC613327), carboplatin (NSC241240), cisplatin (NSC119875), and SN-38 (NSC673596) were obtained from the National Cancer Institute (NCI) Developmental Therapeutics Program Chemical Repository (32). The FDA-approved anticancer drug set is available from the Developmental Therapeutics Program at https://dtp.cancer.gov/organization/dscb/obtaining/available plates.htm. […] The stock solutions were prepared in dimethyl sulfoxide (DMSO, Sigma-Aldrich, St. Louis, MO, cat. D2650), except for the platinum compounds which were prepared in saline (Quality Biological, Gaithersburg, MD, cat. 114-055-101), at 800-fold the tested concentration and stored at -70 degrees C prior to their use. All drugs and investigational agents were tested over a range starting from a high concentration at or near the clinical Cmax and decreasing in half-log increments. If the clinical Cmax for an agent had not been determined, the highest concentration tested was 10 microM (Table 1).
# Cell Culture. All cells were maintained in an incubator at 37 degrees C and 5% CO2 with 95% humidity. The PDC lines were cultured according to standard operating procedures established by the NCI PDMR (https://pdmr.cancer.gov). Briefly, all PDCs were thawed and cultured in Matrigel-coated flasks prepared with a working solution of 1X Ham's F-12 nutrient mix, without supplementation (Invitrogen, Waltham, MA, cat. 11765054), 100 U/mL penicillin-streptomycin (Invitrogen, cat. 15140122), and 2.5% Matrigel (Corning Inc., Corning, NY, cat. 354248) for the first three passages. All PDCs were cultured in complete DMEM/F-12 media containing advanced DMEM/F-12 (Invitrogen, cat. 12634028), 4.9% defined fetal bovine serum, heat inactivated (HyClone Laboratories Inc., Logan, UT, cat. SH30070.03HI), 389 ng/mL hydrocortisone (Sigma-Aldrich, cat. H4001), 9.7 ng/mL human EGF recombinant protein (Invitrogen, cat. PHG0313), 23.4 microg/mL adenine (Sigma-Aldrich, cat. A2786), 97.3 U/mL penicillin-streptomycin (Invitrogen, cat. 15140122), 1.9 mM L-glutamine (Invitrogen, cat. 25030081), and 9.7 microM Y-27632 dihydrochloride (Tocris Bioscience, Bristol, United Kingdom, cat. 1254). The PDCs were cultured in complete DMEM/F12 media without 10 microM Y-27632 dihydrochloride for at least two passages prior to the screen. The established cell lines NCI-H1341 and […] were cultured in DMEM/F-12, HEPES (Invitrogen, cat. 11330032), 5% defined fetal bovine serum (HyClone Laboratories Inc., cat. SH30070.03), ITS premix universal culture supplement [insulin (5 microg/mL), transferrin (5 microg/mL), and selenious acid (5 ng/mL)] […]
Structure (SMILES),IC50 (curve of compound),"viability, T/C (compound 0.0316 µM)","viability, T/C (compound 0.1 µM)","viability, T/C (compound 0.316 µM)","viability, T/C (compound 1 µM)","viability, T/C (compound 3.16 µM)","viability, T/C (compound 10 µM)",other results
CC(C)CC(NC(=O)C(Cc1ccccc1)NC(=O)c1cnccn1)B(O)O (stereo not drawn),5.51 nM and 5.76 nM and 4 nM,–,–,–,–,–,–,"viability, T/C (compound 0.000949 µM): 98.7% and 95% and 101%; viability, T/C (compound 0.003 µM): 109% and 105% and 66.2%; viability, T/C (compound 0.00949 µM): 1.7% and 11.6% and 1.54%; viability, T/C (compound 0.03 µM): 0.16% and 0.44% and 0.39%; viability, T/C (compound 0.0949 µM): 0.13% and 0.38% and 0.33%; viability, T/C (compound 0.3 µM): 0.21% and 0.32% and 0.4%"
CC(C)c1c(-c2ccccc2)nc2c(C#N)c[nH]n2c1=O,> 10000 nM,104% and 106% and 108%,117% and 104% and 101%,108% and 99.2% and 105%,105% (2×) and 96.3%,116% and 99.7% and 105%,111% and 102% (2×),–
CC(CO)NC(=O)c1cc(-c2ccc(Cl)cc2)nn(-c2cnn(C)c2)c1=O (stereo not drawn),–,–,98.2% [middle of 20 runs],–,95.8% [middle of 21 runs],–,–,"IC50 (compound alone, run of 07/12/2022): > 10000 nM"
CC1(C)CCC(CN2CCN(c3ccc(C(=O)NS(=O)(=O)c4ccc(NCC5CCOCC5)c([N+](=O)[O-])c4)c(Oc4cnc5[nH]ccc5c4)c3)CC2)=C(c2ccc(Cl)cc2)C1,> 10000 nM,101% and 99.7% and 98.9%,102% and 97.2% and 99%,92.6% and 103% and 110%,98.6% and 108% and 117%,113% and 107% and 116%,107% and 105% and 61.2%,–
CC1COCCN1c1cc(-c2ccnn2C)c2ccnc(-c3ccn[nH]3)c2n1 (stereo not drawn),–,50.2% and 101% and 62.9%,32.1% and 81.2% and 45%,21.2% and 65.8% and 31.5%,10.6% and 33.4% and 15.8%,–,–,"viability, T/C (compound 0.00316 µM): 89.5% and 94.4% and 96.2%; viability, T/C (compound 0.01 µM): 76.2% and 102% and 80.5%"
CC1COCCN1c1cc(C2(S(C)(=N)=O)CC2)nc(-c2ccnc3[nH]ccc23)n1 (stereo not drawn),5130 nM and > 10000 nM and 5460 nM,99.2% and 97.3% and 90.2%,114% and 106% and 101%,99.1% and 96.2% and 87.3%,98.6% and 98.9% and 78.1%,66.1% and 101% and 65.9%,27.7% and 76.4% and 33.8%,–
CCN(c1cc(-c2ccc(CN3CCOCC3)cc2)cc(C(=O)NCc2c(C)cc(C)[nH]c2=O)c1C)C1CCOCC1,> 3000 nM,–,–,–,–,–,–,"viability, T/C (compound 0.00949 µM): 99.5% and 108% and 105%; viability, T/C (compound 0.03 µM): 110% and 95.2% and 118%; viability, T/C (compound 0.0949 µM): 112% and 105% and 109%; viability, T/C (compound 0.3 µM): 101% and 100% and 115%; viability, T/C (compound 0.949 µM): 73.7% and 104% and 92.1%; viability, T/C (compound 3 µM): 68.2% and 106% and 76.9%"
CC[C@@]1(O)C(=O)OCc2c1cc1n(c2=O)Cc2cc3c(CN(C)C)c(O)ccc3nc2-1,23.4 nM and 27.8 nM and 64.4 nM,39.3% and 44.6% and 60.9%,19% and 22.2% and 43.2%,–,–,–,–,"viability, T/C (compound 0.000316 µM): 101% (2×) and 99%; viability, T/C (compound 0.001 µM): 96.5% and 104% and 98.2%; viability, T/C (compound 0.00316 µM): 93.2% and 85.7% and 107%; viability, T/C (compound 0.01 µM): 79.9% and 87.8% and 95.2%"
CCc1c2c(nc3ccc(O)cc13)-c1cc3c(c(=O)n1C2)COC(=O)[C@]3(O)CC,2.01 nM and 9.5 nM and 1.79 nM,–,–,–,–,–,–,"viability, T/C (compound 0.000949 µM): 67.7% and 96.1% and 59.2%; viability, T/C (compound 0.003 µM): 40.4% and 91.2% and 42.6%; viability, T/C (compound 0.00949 µM): 20% and 50% and 21.4%; viability, T/C (compound 0.03 µM): 13.4% and 36.5% and 21.1%; viability, T/C (compound 0.0949 µM): 14.4% and 37.9% and 15.2%; viability, T/C (compound 0.3 µM): 14.4% and 35.1% and 16.7%"
COc1cc(C2c3cc4c(cc3C(OC3OC5COC(C)OC5C(O)C3O)C3COC(=O)C23)OCO4)cc(OC)c1O (stereo not drawn),402 nM and 682 nM and 1810 nM,96.4% and 99.5% and 94.3%,85.2% and 85.9% and 99%,57.3% and 77% and 89.2%,23.7% and 34.1% and 60.9%,16.9% and 30.2% and 40.8%,9.04% and 15.1% and 30.3%,–
COc1cc(Nc2ncc3c(n2)-c2ccc(Cl)cc2C(c2c(F)cccc2OC)=NC3)ccc1C(=O)O,–,24.8% and 65.8% and 25.6%,24.5% and 56.9% and 27.2%,40% and 108% and 56%,65.1% and 114% and 79%,64% and 116% and 85.6%,74.5% and 104% and 61.2%,–
COc1ccc([C@@H](O)c2cc(-c3ncnc4cc(N5CCOCC5)ccc34)c(F)cc2Cl)nn1,> 10000 nM,104% and 102% and 101%,107% and 101% and 103%,96.9% and 107% and 112%,97.4% and 114% and 94.8%,102% and 110% and 95.2%,56% and 96.2% and 56.6%,–
